Laboratory results reported in article PMC7822874, “Chemoprotective antimalarials identified through quantitative high-throughput screening of Plasmodium blood and liver stage parasites” (Scientific Reports, 2021).

Columns and labels:
Format in all cases: cell-based, Plasmodium falciparum
[1] = tested on: P. falciparum Dd2 Cytb F123L; test: SYBR Green ABS proliferation assay, NCGC00473217 selected clone G08; conditions: Plasmodium falciparum, DD2, cytochrome b mutant line, fifth value triple, c15; […]; read-out: log AC50, mean (converted)
Description: (§1) As resistance selection studies implicated the parasite cytochrome bc1 complex in mediating reduced parasite susceptibility to both NCGC00473217 and NCGC00374598, we leveraged these drug-selected parasites to test for altered drug response to a panel of antimalarial compounds.
(§2) The P. falciparum parasite Dd2 line was cultured in vitro using standard conditions. […] Tissue culture flasks and assay plates were incubated at 37 °C under a gas mixture of 5% CO2, 5% O2 and 90% N2. […] Significant differences were assessed using two-sided Student’s t-tests. All HTS assays were stopped and read at 72 h. Percent response values represent relative growth as judged by SYBR Green-I fluorescence intensity values normalized to controls.
(§3) Fresh uninfected RBCs (0.5% hematocrit) were added on day 7 and media was changed every other day. […] Resistant parasites were maintained under drug media at a volume of 50 mL until a high parasitemia (> 5%) was achieved. Aliquots of the bulk resistant cultures were frozen in cryovials before cloning by limiting dilution in 96-well plates (seeded at 0.25 or 0.5 parasites/well)[70]. After 3 weeks of cloning, we screened for positive wells by flow cytometry with SYBR Green-stained cells. […] Parasites were harvested by saponin lysis at the trophozoite stage and genomic DNA was extracted using the QIAamp DNA Blood Midi Kit (Qiagen, Germantown, MD)[71].

[2] = tested on: P. falciparum Dd2 Cytb A122D; test: SYBR Green ABS proliferation assay, NCGC00473217 selected clone F12; conditions: Plasmodium falciparum, DD2, cytochrome b mutant line, fourth value triple, c12; […]; read-out: log AC50, mean (converted)
Description: as §1, §2, §3

[3] = tested on: P. falciparum Dd2 Cytb G131S; test: SYBR Green ABS proliferation assay, NCGC00374598 selected clone C11; conditions: Plasmodium falciparum, DD2, cytochrome b mutant line, second value triple, c6; […]; read-out: log AC50, mean (converted)
Procedure, shortened: (§4)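 72 h SYBR Green-I read; % response = relative growth vs controls. Clones from resistance selection, cloned by limiting dilution; 37 °C, 5% CO2/5% O2/90% N2.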

[4] = tested on: P. falciparum Dd2 Cytb V259L; test: SYBR Green ABS proliferation assay, NCGC00473217 selected clone F06; conditions: Plasmodium falciparum, DD2, cytochrome b mutant line, third value triple, c9; […]; read-out: log AC50, mean (converted)
Procedure, shortened: as §4

SMILES	AC50 [1]	AC50 [2]	AC50 [3]	AC50 [4]
CCCN1C(CC(C)C)=N[S+](=O)([O-])c2cc(NC(=O)c3cccc(C(F)(F)F)c3)ccc21 [NCGC00531777-01]	0.00224 µM	7.52 µM	710 nM	1.36 µM
CCCN1C(CC(C)C)=N[S+](=O)([O-])c2cc(NC(=O)c3ccc4c(c3)OCCO4)ccc21 [NCGC00531778-01]	13.1 µM	13.1 µM	224 nM	5.22 µM
CCCN1C(CC(C)C)=N[S+](=O)([O-])c2cc(NC(=O)c3c(Cl)cccc3Cl)ccc21 [NCGC00531779-01]	15.3 µM	15.9 µM	1850 nM	11.9 µM
CCCN1C(CC(C)C)=N[S+](=O)([O-])c2cc(NCc3ccc(F)cc3)ccc21 [NCGC00531784-01]	12.6 µM	14.2 µM	4150 nM	11.9 µM
CCCN1C(CC(C)C)=N[S+](=O)([O-])c2cc(NCc3ccccc3)ccc21 [NCGC00531800-01]	14.2 µM	9.46 µM	10000 nM	11.2 µM
CCCN1C(CC(C)C)=N[S+](=O)([O-])c2cc(N(Cc3cccs3)Cc3cccs3)ccc21 [NCGC00531812-01]	4.66 µM	3.99 µM	6320 nM	3.56 µM
CCCN1C(CC(C)C)=N[S+](=O)([O-])c2cc(NCc3cccs3)ccc21 [NCGC00531814-01]	15.9 µM	19.3 µM	15900 nM	17.8 µM
CCCN1C(CC(C)C)=N[S+](=O)([O-])c2cc(NC(=O)Cc3cccs3)ccc21 [NCGC00531815-01]	5.64 µM	5.22 µM	10000 nM	7.67 µM
CCCN1C(CC2CCCCC2)=N[S+](=O)([O-])c2cc(NC(=O)c3ccc(F)cc3)ccc21 [NCGC00532335-01]	0.282 µM	3.3 µM	861 nM	5.32 µM
CCCN1C(Cc2ccccc2)=N[S+](=O)([O-])c2cc(NC(=O)c3cccs3)ccc21 [NCGC00532337-01]	10 µM	7.1 µM	3050 nM	0.796 µM
CCCN1C(Cc2ccccc2)=N[S+](=O)([O-])c2cc(NC(=O)c3ccc(F)cc3)ccc21 [NCGC00532338-01]	0.356 µM	3.17 µM	89.3 nM	0.767 µM
CCCN1C(CC(F)(F)F)=N[S+](=O)([O-])c2cc(NC(=O)c3cccs3)ccc21 [NCGC00532340-01]	7.1 µM	7.1 µM	6320 nM	2 µM
CCCN1C(COC)=N[S+](=O)([O-])c2cc(NC(=O)c3cccs3)ccc21 [NCGC00532347-01]	0.00796 µM	8.93 µM	1780 nM	8.93 µM
CCCN1C(CC2CCCCC2)=N[S+](=O)([O-])c2cc(NC(=O)c3cccs3)ccc21 [NCGC00532404-01]	3.99 µM	1.53 µM	966 nM	1.5 µM
CCCN1C(CC(C)C)=N[S+](=O)([O-])c2cc(NC(=O)Nc3cccs3)ccc21 [NCGC00537523-01]	9.66 µM	9.29 µM	2670 nM	5.22 µM
CCCN1C(CC2CCOCC2)=N[S+](=O)([O-])c2cc(NC(=O)c3ccc(F)cc3)ccc21 [NCGC00537661-01]	4.84 µM	5.86 µM	200 nM	5.02 µM
CCCN1C(CC2CCOCC2)=N[S+](=O)([O-])c2cc(NC(=O)c3cccs3)ccc21 [NCGC00537663-01]	3.56 µM	2.82 µM	3700 nM	4.66 µM
CCCN1C(CC2CCC2)=N[S+](=O)([O-])c2cc(NC(=O)c3cccs3)ccc21 [NCGC00537664-01]	1.78 µM	1.36 µM	466 nM	1.19 µM
